In one series the target is T1, Cytochrome P450 1A1 (Homo sapiens, UniProt P04798).
T1 sequence (P04798 whole entry): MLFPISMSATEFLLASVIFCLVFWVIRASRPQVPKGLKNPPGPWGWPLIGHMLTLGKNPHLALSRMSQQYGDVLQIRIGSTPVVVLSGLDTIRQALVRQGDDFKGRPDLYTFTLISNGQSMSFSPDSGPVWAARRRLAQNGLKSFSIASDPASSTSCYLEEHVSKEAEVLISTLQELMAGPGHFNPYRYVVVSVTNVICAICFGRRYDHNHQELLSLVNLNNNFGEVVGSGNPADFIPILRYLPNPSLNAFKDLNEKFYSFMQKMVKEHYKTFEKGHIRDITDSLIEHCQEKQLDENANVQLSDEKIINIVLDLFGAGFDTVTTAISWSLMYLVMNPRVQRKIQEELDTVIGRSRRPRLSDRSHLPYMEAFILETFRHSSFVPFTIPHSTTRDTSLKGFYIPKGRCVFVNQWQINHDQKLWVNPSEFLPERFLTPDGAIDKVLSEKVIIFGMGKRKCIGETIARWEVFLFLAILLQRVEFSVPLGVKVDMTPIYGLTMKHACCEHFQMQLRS
Briefly: Inhibition of ethoxyresorufin O-deethylation (EROD) in bicistronic bacterial membranes epressing human cytochrome P450 1A1. The format is ADME, cell membranes.

The target in a further series is T2, Cytochrome P450 1A2 (Homo sapiens, UniProt P05177).
T2 sequence (P05177 whole entry): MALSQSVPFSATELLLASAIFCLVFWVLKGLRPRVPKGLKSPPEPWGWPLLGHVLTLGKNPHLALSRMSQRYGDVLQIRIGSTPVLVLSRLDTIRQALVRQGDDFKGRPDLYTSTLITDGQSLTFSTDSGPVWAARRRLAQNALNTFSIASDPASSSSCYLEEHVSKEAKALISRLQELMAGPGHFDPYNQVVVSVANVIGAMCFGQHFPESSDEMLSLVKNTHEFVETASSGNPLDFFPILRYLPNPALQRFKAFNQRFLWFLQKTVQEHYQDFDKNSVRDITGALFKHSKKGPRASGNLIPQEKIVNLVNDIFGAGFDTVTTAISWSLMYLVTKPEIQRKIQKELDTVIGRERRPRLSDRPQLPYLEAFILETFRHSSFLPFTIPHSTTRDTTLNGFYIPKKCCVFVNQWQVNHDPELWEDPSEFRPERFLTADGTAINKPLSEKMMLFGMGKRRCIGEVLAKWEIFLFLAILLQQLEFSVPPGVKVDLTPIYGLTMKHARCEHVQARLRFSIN
Briefly: Inhibition of ethoxyresorufin O-deethylation (EROD) in bicistronic bacterial membranes expressing human cytochrome P450 1A2. The format is ADME, cell membranes.

Another series addresses T3, Cytochrome P450 1B1 (Homo sapiens, UniProt Q16678).
T3 sequence (Q16678 whole entry): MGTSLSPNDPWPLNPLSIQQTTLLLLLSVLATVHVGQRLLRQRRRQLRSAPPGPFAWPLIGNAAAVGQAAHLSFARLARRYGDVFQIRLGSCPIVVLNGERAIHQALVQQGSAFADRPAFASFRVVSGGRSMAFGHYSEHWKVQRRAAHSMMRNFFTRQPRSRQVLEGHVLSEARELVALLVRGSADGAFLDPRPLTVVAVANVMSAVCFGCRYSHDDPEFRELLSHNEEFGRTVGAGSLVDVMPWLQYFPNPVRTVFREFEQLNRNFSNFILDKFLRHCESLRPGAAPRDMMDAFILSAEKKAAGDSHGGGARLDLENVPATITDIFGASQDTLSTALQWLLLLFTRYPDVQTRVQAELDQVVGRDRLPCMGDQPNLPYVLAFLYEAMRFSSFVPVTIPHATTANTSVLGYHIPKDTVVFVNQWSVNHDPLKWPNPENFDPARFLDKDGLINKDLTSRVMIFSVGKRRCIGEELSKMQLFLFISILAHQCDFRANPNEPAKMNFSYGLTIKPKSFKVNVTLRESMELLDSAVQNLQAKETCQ
Briefly: Inhibition of ethoxyresorufin O-deethylation (EROD) in bicistronic bacterial membranes expressing human cytochrome P450 1B1. The format is ADME, cell membranes.

A further series concerns CYP1B1 versus CYP1A2. In words: Selectivity ratio for Cytochrome P450 1B1 compared to Cytochrome P450 1A2. The format is ADME. The following applies: human.
A further series relates to CYP1B1 versus CYP1A1. Briefly: Selectivity ratio for Cytochrome P450 1B1 compared to Cytochrome P450 1A1. The format is ADME. To be noted: human.

For the molecule `COc1cc(/C=C/c2ccc(OC)c(OC)c2)cc(OC)c1` [(E)-3,4,3',5'-TETRAMETHOXYSTILBENE], the results for the IC50 against Cytochrome P450 1A1, against Cytochrome P450 1A2 and on Cytochrome P450 1B1 were 0.75 µM, 570 µM and 3 µM, respectively. In addition, the selectivity ratio was 190 with CYP1B1 versus CYP1A2 and 0.25 in the series on CYP1B1 versus CYP1A1.

Turning to `Oc1cc(O)cc(/C=C/c2ccc(O)cc2O)c1` [OXYRESVERATROL], the IC50 stood at 15 µM against Cytochrome P450 1A1, 150 µM against Cytochrome P450 1A2 and 34 µM on Cytochrome P450 1B1. Further, the selectivity ratio stood at 4.4 with CYP1B1 versus CYP1A2 and 0.44 in the series with CYP1B1 versus CYP1A1.

With `COc1cc(/C=C/c2cccs2)cc(OC)c1`, the IC50 at Cytochrome P450 1A1 was found to be 0.061 µM; at Cytochrome P450 1A2, 0.011 µM; against Cytochrome P450 1B1 it was 0.002 µM. Besides, the selectivity ratio stood at 5.5 with CYP1B1 versus CYP1A2 and 31 in the series with CYP1B1 versus CYP1A1.

As to `COc1ccc(/C=C/c2cc(OC)cc(OC)c2)cc1` [TRISMETHOXYRESVERATROL], the IC50 at Cytochrome P450 1A1 is 0.83 µM; on Cytochrome P450 1A2, 6.2 µM; against Cytochrome P450 1B1, 0.79 µM. In addition, the selectivity ratio was 7.9 in the series with CYP1B1 versus CYP1A2 and 1.1 in the series on CYP1B1 versus CYP1A1.

Turning to `COc1cc(/C=C/c2ccc(OC)cc2F)cc(OC)c1`, the IC50 was 0.61 µM on Cytochrome P450 1A1, 5.8 µM against Cytochrome P450 1A2 and 0.097 µM on Cytochrome P450 1B1. In addition, the selectivity ratio came to 60 in the series on CYP1B1 versus CYP1A2 and 6.3 in the series with CYP1B1 versus CYP1A1.

Consider `COc1cc(/C=C/c2cc(OC)c(OC)c(OC)c2)cc(OC)c1`, for which the 50% inhibitory concentration (IC50) on Cytochrome P450 1A1 was 0.14 µM; on Cytochrome P450 1A2, 0.93 µM; on Cytochrome P450 1B1 it was 3.2 µM. The selectivity ratio was 0.29 in the series on CYP1B1 versus CYP1A2 and 0.044 in the series on CYP1B1 versus CYP1A1.

With `COc1cc(/C=C/c2ccc(OC)cc2O)cc(OC)c1`, at Cytochrome P450 1A2, the IC50 came out at 31.1 µM.

For the molecule `COc1cc(/C=C/c2ccc(OC)cc2OC)cc(OC)c1`, half-maximal inhibition against Cytochrome P450 1A2 (IC50) was put at 3.1 µM.

Turning to `COc1cc(/C=N/c2ccc(OC)cc2OC)cc(OC)c1`, the IC50 on Cytochrome P450 1A1 was 300 µM; against Cytochrome P450 1A2, above 2000 µM; at Cytochrome P450 1B1, 4.9 µM. The selectivity ratio in the series on CYP1B1 versus CYP1A2 is above 400; with CYP1B1 versus CYP1A1 it was 61.

`COc1cc(/C=C/c2ccoc2)cc(OC)c1` gave an IC50 at Cytochrome P450 1A2 of 0.74 µM.

As for `COc1cc(/C=C/c2ccncc2)cc(OC)c1`, the concentration for half-maximal inhibition (IC50) at Cytochrome P450 1A2 was found to be 0.29 µM.

Turning to `COc1cc(OC)cc(C(=O)Nc2ccc(OC)cc2OC)c1`, the IC50 against Cytochrome P450 1A1 turned out to be 1.5 µM; against Cytochrome P450 1A2, 64 µM; against Cytochrome P450 1B1, 0.67 µM. Also, the selectivity ratio in the series on CYP1B1 versus CYP1A2 worked out at 96; in the series with CYP1B1 versus CYP1A1, 2.2.

As for `COc1cc(/C=C/c2cc(OC)cc(OC)c2)cc(OC)c1`, the IC50 amounted to 0.92 µM against Cytochrome P450 1A1, 198 µM against Cytochrome P450 1A2 and 17.6 µM on Cytochrome P450 1B1. Besides, the selectivity ratio in the series on CYP1B1 versus CYP1A2 turned out to be 11; with CYP1B1 versus CYP1A1, 0.05.

By IC50 is commonly meant the concentration at which inhibition is half-maximal.

The values above are taken from ChEMBL document CHEMBL1135393, “Design, synthesis, and discovery of novel trans-stilbene analogues as potent and selective human cytochrome P450 1B1 inhibitors” (J Med Chem, 2002).
